In ChEMBL document CHEMBL1212704, “Structural and biochemical evidence for a boat-like transition state in beta-mannosidases” (Nat Chem Biol, 2008):

What was measured:
[1] = Inhibition of wild type Bacteroides thetaiotaomicron beta-mannosidase 2A expressed in Escherichia coli BL21 (DE3) at 37 degC and Ph 5.6 by 2,4-dinitrophenolate release assay
[2] = molecular target: Beta-mannosidase (Bacteroides thetaiotaomicron (strain ATCC 29148 / DSM 2079 / NCTC10582 / E50 / VPI-5482), UniProt Q8AAK6, Y537A)
Sequence of Beta-mannosidase (Bacteroides thetaiotaomicron (strain ATCC 29148 / DSM 2079 / NCTC10582 / E50 / VPI-5482), UniProt Q8AAK6, Y537A) (Q8AAK6 26-864 Y537A limits assumed): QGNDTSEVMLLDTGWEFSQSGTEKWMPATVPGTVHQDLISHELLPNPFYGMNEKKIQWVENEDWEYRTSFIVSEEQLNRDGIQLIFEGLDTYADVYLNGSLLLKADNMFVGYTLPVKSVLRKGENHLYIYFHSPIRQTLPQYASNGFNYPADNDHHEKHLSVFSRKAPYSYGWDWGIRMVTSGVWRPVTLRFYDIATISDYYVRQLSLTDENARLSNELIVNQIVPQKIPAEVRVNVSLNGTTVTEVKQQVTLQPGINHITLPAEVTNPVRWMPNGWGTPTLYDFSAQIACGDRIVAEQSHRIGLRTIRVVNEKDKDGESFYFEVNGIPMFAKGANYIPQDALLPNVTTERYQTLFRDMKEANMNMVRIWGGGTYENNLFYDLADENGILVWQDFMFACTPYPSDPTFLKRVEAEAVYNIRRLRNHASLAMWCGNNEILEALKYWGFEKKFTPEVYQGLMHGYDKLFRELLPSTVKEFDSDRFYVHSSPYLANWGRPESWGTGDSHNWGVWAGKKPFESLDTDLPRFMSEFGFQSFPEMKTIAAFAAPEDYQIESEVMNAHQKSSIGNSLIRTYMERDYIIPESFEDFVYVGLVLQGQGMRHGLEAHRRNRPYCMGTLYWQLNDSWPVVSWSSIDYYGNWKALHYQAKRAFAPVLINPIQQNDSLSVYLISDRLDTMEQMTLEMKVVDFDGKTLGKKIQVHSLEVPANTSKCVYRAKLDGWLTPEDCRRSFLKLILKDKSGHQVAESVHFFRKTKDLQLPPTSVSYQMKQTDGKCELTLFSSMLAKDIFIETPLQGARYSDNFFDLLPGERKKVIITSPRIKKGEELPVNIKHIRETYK

[3] = molecular target: Beta-mannosidase (Bacteroides thetaiotaomicron (strain ATCC 29148 / DSM 2079 / NCTC10582 / E50 / VPI-5482), UniProt Q8AAK6, W645A)
Sequence of Beta-mannosidase (Bacteroides thetaiotaomicron (strain ATCC 29148 / DSM 2079 / NCTC10582 / E50 / VPI-5482), UniProt Q8AAK6, W645A) (Q8AAK6 26-864 W645A limits assumed): as the sequence (Q8AAK6 26-864 Y537A limits assumed) above, with A512Y, W620A counted along it

[4] = molecular target: Beta-mannosidase (Bacteroides thetaiotaomicron (strain ATCC 29148 / DSM 2079 / NCTC10582 / E50 / VPI-5482), UniProt Q8AAK6, W198G)
Sequence of Beta-mannosidase (Bacteroides thetaiotaomicron (strain ATCC 29148 / DSM 2079 / NCTC10582 / E50 / VPI-5482), UniProt Q8AAK6, W198G) (Q8AAK6 26-864 W198G limits assumed): as the sequence (Q8AAK6 26-864 Y537A limits assumed) above, with W173G, A512Y counted along it

[5] = molecular target: Beta-mannosidase (Bacteroides thetaiotaomicron (strain ATCC 29148 / DSM 2079 / NCTC10582 / E50 / VPI-5482), UniProt Q8AAK6, Q646A)
Sequence of Beta-mannosidase (Bacteroides thetaiotaomicron (strain ATCC 29148 / DSM 2079 / NCTC10582 / E50 / VPI-5482), UniProt Q8AAK6, Q646A) (Q8AAK6 26-864 Q646A limits assumed): as the sequence (Q8AAK6 26-864 Y537A limits assumed) above, with A512Y, Q621A counted along it

[6] = molecular target: Beta-mannosidase (Bacteroides thetaiotaomicron (strain ATCC 29148 / DSM 2079 / NCTC10582 / E50 / VPI-5482), UniProt Q8AAK6, N461A)
Sequence of Beta-mannosidase (Bacteroides thetaiotaomicron (strain ATCC 29148 / DSM 2079 / NCTC10582 / E50 / VPI-5482), UniProt Q8AAK6, N461A) (Q8AAK6 26-864 N461A limits assumed): as the sequence (Q8AAK6 26-864 Y537A limits assumed) above, with N436A, A512Y counted along it

[7] = molecular target: Beta-mannosidase (Bacteroides thetaiotaomicron (strain ATCC 29148 / DSM 2079 / NCTC10582 / E50 / VPI-5482), UniProt Q8AAK6, W395A)
Sequence of Beta-mannosidase (Bacteroides thetaiotaomicron (strain ATCC 29148 / DSM 2079 / NCTC10582 / E50 / VPI-5482), UniProt Q8AAK6, W395A) (Q8AAK6 26-864 W395A limits assumed): as the sequence (Q8AAK6 26-864 Y537A limits assumed) above, with W370A, A512Y counted along it

[8] = Inhibition of Thermotoga maritima Beta-glucosidase GH1

SMILES	Ki [1] [µM]	Ki [2] [µM]	Ki [3] [µM]	Ki [4] [µM]	Ki [5] [µM]	Ki [6] [µM]	Ki [7] [µM]	also measured
CCCCN1C[C@H](O)[C@@H](O)[C@H](O)[C@H]1CO	6000	–	–	–	–	–	–	–
OC[C@@H]1[C@@H](O)[C@H](O)[C@H](O)c2nc(CCc3ccccc3)cn21	0.057	0.71	324	14.2	0.245	3.19	47	–
OC[C@@H]1[C@@H](O)[C@H](O)[C@H](O)c2nc(CNc3ccccc3)cn21	–	1.54	68.1	58.5	0.311	7.28	46.6	–
OC[C@@H]1[C@@H](O)[C@H](O)[C@H](O)c2nc(COc3ccccc3)cn21	0.401	2.65	245	356	0.494	19.1	284	–
OC[C@@H]1[C@@H](O)[C@H](O)[C@H](O)c2nc(C#Cc3ccccc3)cn21	2.4	–	–	–	–	–	–	–
NCCC/N=C1\N[C@H](CO)[C@@H](O)[C@H](O)[C@@H]1O	2.1	–	–	–	–	–	–	–
OCCC/N=C1\N[C@H](CO)[C@@H](O)[C@H](O)[C@@H]1O	2.2	–	–	–	–	–	–	–
CCC/N=C1\N[C@H](CO)[C@@H](O)[C@H](O)[C@@H]1O	1.9	84	5700	10500	71.2	34.8	1180	–
NCCCC/N=C1\N[C@H](CO)[C@@H](O)[C@H](O)[C@H]1O	22	–	–	–	–	–	–	–
OC[C@H]1C[C@H]2[C@@H](O)[C@@H](O)[C@@]1(O)CN2Cc1ccccc1	–	233	14400	5690	121	3750	2850	–
OC[C@H]1C[C@@H]2NC[C@]1(O)[C@H](O)[C@@H]2O	500	–	–	–	–	–	–	–
OC[C@H]1CNC(O)[C@@H](O)[C@@H]1O (some centres undefined)	–	19.2	1.11	788	14	641	40.8	–
OC[C@@H]1[C@@H](O)[C@H](O)[C@H](O)c2nnnn21	1000	–	–	–	–	–	–	Ki [8]: 0.17 µM
O[C@@H]1[C@@H](O)[C@H](O)[C@@]2(O)CC[C@H]1N2	11000	–	–	–	–	–	–	–
OC[C@H]1N/C(=N/O)[C@H](O)[C@@H](O)[C@@H]1O	2000	–	–	–	–	–	–	–
CC(C)O[C@@H]1O[C@]2(CO)CC[C@]1(O)[C@@H](O)[C@@H]2O	> 400000	–	–	–	–	–	–	–
OC[C@H]1CNC[C@@H](O)[C@@H]1O [AFEGOSTAT]	9000	–	–	–	–	–	–	–
O[C@H]1[C@H](O)[C@@H](O)CN2CC[C@H](O)[C@H]12 [CASTANOSPERMINE]	23000	–	–	–	–	–	–	–
OC[C@H]1NC[C@H](O)[C@@H](O)[C@@H]1O [DUVOGLUSTAT]	14000	–	–	–	–	–	–	–
OC[C@H]1ONC[C@@H](O)[C@@H]1O [TETRAHYDROOXAZINE]	20000	–	–	–	–	–	–	–
